From ChEMBL document CHEMBL1201862, “PubChem BioAssay data set” (2004)
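These data come from cells grown in 96-well plates and exposed to compound for 48 hours at five concentrations. Here, GI50 denotes the concentration required for 50% inhibition of growth.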 Calls of active or inactive are those of the source. No stated cut-off is given here; in the data, active = GI50 up to about 1.1 µM and inactive = higher.

Experiments:
Assay in all cases: NCI-60 cell line screen, 48 h
OVCAR-4 = system: OVCAR-4
OVCAR-3 = system: OVCAR-3
RXF 393 = system: RXF 393
SF-295 = system: SF-295
MDA-N = system: MDA-N
CCRF-CEM = system: CCRF-CEM
Hs-578T = system: Hs-578T
UACC-62 = system: UACC-62
SNB-19 = system: SNB-19
NCI-H23 = system: NCI-H23
RPMI-8226 = system: RPMI-8226
HCT-15 = system: HCT-15
SNB-75 = system: SNB-75
SR = system: SR
NCI-H460 = system: NCI-H460
786-0 = system: 786-0
MDA-MB-231 = system: MDA-MB-231
HCC 2998 = system: HCC 2998
A549 = system: A549
SF-539 = system: SF-539

Compound	GI50 (OVCAR-4)	GI50 (OVCAR-3)	GI50 (RXF 393)	GI50 (SF-295)	GI50 (MDA-N)	GI50 (CCRF-CEM)	GI50 (Hs-578T)	GI50 (UACC-62)	GI50 (SNB-19)	GI50 (NCI-H23)	GI50 (RPMI-8226)	GI50 (HCT-15) [µM]	GI50 (SNB-75)	GI50 (SR)	GI50 (NCI-H460)	GI50 (786-0)	GI50 (MDA-MB-231)	GI50 (HCC 2998)	GI50 (A549)	GI50 (SF-539)
Nc1nc(O)c2ncn([C@H]3CC[C@@H](CO)O3)c2n1	> 100 µM (inactive)	> 100 µM (inactive)	> 100 µM (inactive)	> 100 µM (inactive)	> 100 µM (inactive)	> 100 µM (inactive)	> 100 µM (inactive)	> 100 µM (inactive)	> 100 µM (inactive)	> 100 µM (inactive)	> 100 µM (inactive)	> 100	> 100 µM (inactive)	> 100 µM (inactive)	> 100 µM (inactive)	–	–	–	–	–
C=C(C)COC1CCCCO1 (stereo not given)	–	> 100 µM (inactive)	–	> 100 µM (inactive)	> 100 µM (inactive)	> 100 µM (inactive)	> 100 µM (inactive)	> 100 µM (inactive)	> 100 µM (inactive)	> 100 µM (inactive)	> 100 µM (inactive)	> 100	> 100 µM (inactive)	> 10 µM (inactive)	> 100 µM (inactive)	> 100 µM (inactive)	> 100 µM (inactive)	> 100 µM (inactive)	> 100 µM (inactive)	> 100 µM (inactive)
Cn1ccc(C(=O)NCCOCCNC(=O)c2ccn(C)c(=O)c2O)c(O)c1=O	> 100 µM (inactive)	–	–	–	> 100 µM (inactive)	–	> 100 µM (inactive)	> 100 µM (inactive)	> 100 µM (inactive)	> 100 µM (inactive)	> 100 µM (inactive)	> 100	–	–	> 100 µM (inactive)	> 100 µM (inactive)	> 100 µM (inactive)	> 100 µM (inactive)	> 100 µM (inactive)	–
COc1ccc(/C=C2/SC(c3ccc(Cl)cc3)N(NC(=O)CCCCCCCCC(=O)NN3C(=O)/C(=C\c4ccc(OC)c(OC)c4)SC3c3ccc(Cl)cc3)C2=O)cc1OC (stereo not given)	> 100 µM (inactive)	60 µM (inactive)	28 µM (inactive)	21.4 µM (inactive)	36.6 µM (inactive)	–	–	29.3 µM (inactive)	50.2 µM (inactive)	20.4 µM (inactive)	> 100 µM (inactive)	> 100	> 100 µM (inactive)	> 100 µM (inactive)	61 µM (inactive)	24.4 µM (inactive)	> 100 µM (inactive)	> 100 µM (inactive)	64.3 µM (inactive)	29.2 µM (inactive)
CO/N=C(\C(=O)O/C(=N/C1CCCCC1)NC1CCCCC1)c1csc(NC(c2ccccc2)(c2ccccc2)c2ccccc2)n1	> 10 µM (inactive)	> 10 µM (inactive)	5.05 µM (inactive)	> 10 µM (inactive)	> 10 µM (inactive)	> 10 µM (inactive)	> 10 µM (inactive)	–	> 10 µM (inactive)	> 10 µM (inactive)	> 10 µM (inactive)	> 10	> 10 µM (inactive)	> 10 µM (inactive)	> 10 µM (inactive)	> 10 µM (inactive)	–	> 10 µM (inactive)	> 10 µM (inactive)	> 10 µM (inactive)
CC(C)(O)/C1=C/C=C/CCCCCCCCCC1	–	> 100 µM (inactive)	–	> 100 µM (inactive)	> 100 µM (inactive)	30.3 µM (inactive)	1.19 µM (inactive)	90.2 µM (inactive)	> 100 µM (inactive)	> 100 µM (inactive)	33.3 µM (inactive)	> 100	0.387 µM (active)	34 µM (inactive)	> 100 µM (inactive)	–	> 100 µM (inactive)	> 100 µM (inactive)	–	–
O=C(CNC(=O)c1ccccc1)Oc1c(Cl)c(Cl)c(Cl)c(Cl)c1Cl	45.5 µM (inactive)	25.4 µM (inactive)	39.4 µM (inactive)	33.2 µM (inactive)	–	38.7 µM (inactive)	24.9 µM (inactive)	21.9 µM (inactive)	44.9 µM (inactive)	> 100 µM (inactive)	38.7 µM (inactive)	30.6	45.5 µM (inactive)	32.4 µM (inactive)	38.5 µM (inactive)	50.5 µM (inactive)	22.9 µM (inactive)	27.7 µM (inactive)	29 µM (inactive)	28.2 µM (inactive)
COC1=CC(=O)c2c(O)ccc(O)c2C1=O	13.6 µM (inactive)	2.18 µM (inactive)	16.6 µM (inactive)	2 µM (inactive)	0.7 µM (active)	8.57 µM (inactive)	6.4 µM (inactive)	1.92 µM (inactive)	4.75 µM (inactive)	2.64 µM (inactive)	9.2 µM (inactive)	2.4	1.91 µM (inactive)	–	5.04 µM (inactive)	14.6 µM (inactive)	3.12 µM (inactive)	4.49 µM (inactive)	1.98 µM (inactive)	5.19 µM (inactive)
CC(C)CNC(=O)CCc1cccc2c1oc1c(CCN)cccc12	18 µM (inactive)	5.65 µM (inactive)	16 µM (inactive)	16.3 µM (inactive)	20.9 µM (inactive)	3.9 µM (inactive)	–	17.1 µM (inactive)	4.35 µM (inactive)	12.5 µM (inactive)	–	24.1	5.62 µM (inactive)	8.43 µM (inactive)	18.2 µM (inactive)	12.4 µM (inactive)	15 µM (inactive)	14.2 µM (inactive)	18.5 µM (inactive)	16 µM (inactive)
CO/C=C(/C(=O)OC)c1ccccc1Oc1c(F)c(F)c(F)c(F)c1F	24.4 µM (inactive)	21.3 µM (inactive)	20.7 µM (inactive)	54.5 µM (inactive)	41.6 µM (inactive)	30.1 µM (inactive)	25.8 µM (inactive)	21.9 µM (inactive)	57.4 µM (inactive)	37.7 µM (inactive)	16.8 µM (inactive)	54.2	–	–	31.6 µM (inactive)	33.7 µM (inactive)	29.5 µM (inactive)	36.7 µM (inactive)	34.8 µM (inactive)	56 µM (inactive)
CC(C)(C)OC(=O)C1=C(C(=O)OC(C)(C)C)SC2(S1)C(C(=O)OC(C)(C)C)=C(C(=O)OC(C)(C)C)Sc1c2ssc1=O	24.6 µM (inactive)	48.2 µM (inactive)	45.2 µM (inactive)	> 100 µM (inactive)	45.2 µM (inactive)	18.1 µM (inactive)	75.5 µM (inactive)	31.3 µM (inactive)	> 100 µM (inactive)	95.1 µM (inactive)	48.1 µM (inactive)	> 100	–	–	51.2 µM (inactive)	–	83.8 µM (inactive)	> 100 µM (inactive)	72.3 µM (inactive)	–
C=CCCCCCCCCCOC1C=CC(O)C(CO)O1 (stereo not given)	46.6 µM (inactive)	38 µM (inactive)	95.9 µM (inactive)	66.2 µM (inactive)	33.3 µM (inactive)	–	46 µM (inactive)	27.8 µM (inactive)	54.8 µM (inactive)	28.2 µM (inactive)	14.9 µM (inactive)	35.1	51.2 µM (inactive)	–	25.2 µM (inactive)	44.5 µM (inactive)	75.5 µM (inactive)	41.1 µM (inactive)	42.4 µM (inactive)	95.7 µM (inactive)
CC1(C)[C@@H](Cn2cnc3c(O)nc(N)nc32)CC[C@@]1(C)CO	> 100 µM (inactive)	> 100 µM (inactive)	> 100 µM (inactive)	> 100 µM (inactive)	> 100 µM (inactive)	> 100 µM (inactive)	> 100 µM (inactive)	60.5 µM (inactive)	> 100 µM (inactive)	–	> 100 µM (inactive)	> 100	> 100 µM (inactive)	–	–	> 100 µM (inactive)	> 100 µM (inactive)	> 100 µM (inactive)	> 100 µM (inactive)	> 100 µM (inactive)
COc1ccc(-c2cc(=O)c3c(O)c(OC)c(OC)c(OC)c3o2)cc1OC [5-DEMETHYLNOBILETIN]	> 100 µM (inactive)	> 100 µM (inactive)	–	> 100 µM (inactive)	> 100 µM (inactive)	> 100 µM (inactive)	12.6 µM (inactive)	> 100 µM (inactive)	> 100 µM (inactive)	> 100 µM (inactive)	–	> 100	–	> 100 µM (inactive)	–	58.7 µM (inactive)	> 100 µM (inactive)	> 100 µM (inactive)	> 100 µM (inactive)	86.5 µM (inactive)
CC(C)(C)OC(=O)NCCc1ccc(N)cc1	> 100 µM (inactive)	19.9 µM (inactive)	–	49.2 µM (inactive)	> 100 µM (inactive)	> 100 µM (inactive)	–	> 100 µM (inactive)	> 100 µM (inactive)	–	58.6 µM (inactive)	> 100	–	55.6 µM (inactive)	> 100 µM (inactive)	–	> 100 µM (inactive)	> 100 µM (inactive)	> 100 µM (inactive)	–
CC(=O)OC(Cc1c(O)c2c(C)cccc2oc1=O)C(C)(C)O (stereo not given)	–	> 100 µM (inactive)	–	> 100 µM (inactive)	> 100 µM (inactive)	88.5 µM (inactive)	> 100 µM (inactive)	77.4 µM (inactive)	> 100 µM (inactive)	> 100 µM (inactive)	> 100 µM (inactive)	> 100	76 µM (inactive)	55.1 µM (inactive)	> 100 µM (inactive)	> 100 µM (inactive)	> 100 µM (inactive)	> 100 µM (inactive)	> 100 µM (inactive)	> 100 µM (inactive)
